Laboratory results reported in ChEMBL document CHEMBL5344482, “Deconvoluting low yield from weak potency in direct-to-biology workflows with machine learning” (RSC Med Chem, 2024).

How the values were obtained:
[1] = biological target: Replicase polyprotein 1ab (Severe acute respiratory syndrome coronavirus 2, UniProt P0DTD1); test: Inhibition of SARS-Cov-2 main protease using fluorogenic substrate [5-FAM]-AVLQSGFR-[Lys(Dabcyl)]-K-amide by fluorogenic assay
[2] = biological target: Replicase polyprotein 1ab (Severe acute respiratory syndrome coronavirus 2) (UniProt P0DTD1); test: Inhibition of SARS-Cov-2 main protease using fluorogenic substrate [5-FAM]-AVLQSGFR-[Lys(Dabcyl)]-K-amide by fluorogenic assay relative to control

Row | SMILES | IC50 [1] [nM] | inhibition [2] [%]
1 | NCCc1ccc(C(F)F)cc1 | 50 | –
2 | NCCc1cccc(Cl)c1 | 52 | –
3 | Nc1ncc(C(F)(F)F)cc1Cl | – | 35
